{
  "source": "patent US5935805A",
  "about": "“Measurement of bilirubin albumin binding” (Research Corporation Technologies, Inc., priority 1997, dated 1999)",
  "key": {"albumin [1]": {"target": "T1, albumin (Homo sapiens, UniProt P02768)", "T1 sequence (P02768 25-609)": "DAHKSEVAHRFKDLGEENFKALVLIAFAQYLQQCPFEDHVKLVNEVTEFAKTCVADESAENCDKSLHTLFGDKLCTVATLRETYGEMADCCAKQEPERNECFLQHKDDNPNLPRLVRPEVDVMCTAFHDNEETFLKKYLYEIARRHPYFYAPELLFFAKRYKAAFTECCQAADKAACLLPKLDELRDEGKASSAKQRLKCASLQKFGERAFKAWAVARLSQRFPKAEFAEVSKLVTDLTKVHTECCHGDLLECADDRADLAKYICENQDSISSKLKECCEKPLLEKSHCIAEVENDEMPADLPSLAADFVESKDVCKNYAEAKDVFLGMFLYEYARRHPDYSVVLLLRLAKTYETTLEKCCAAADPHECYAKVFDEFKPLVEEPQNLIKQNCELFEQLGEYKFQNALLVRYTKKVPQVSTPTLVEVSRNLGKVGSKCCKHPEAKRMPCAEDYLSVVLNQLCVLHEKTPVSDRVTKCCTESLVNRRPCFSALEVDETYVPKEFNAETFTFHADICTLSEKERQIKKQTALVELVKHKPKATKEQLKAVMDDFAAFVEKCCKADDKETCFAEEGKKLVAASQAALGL", "conditions": "lowest established value; cited from earlier work"}, "albumin [2]": {"target": "T1, albumin", "experiment": "Bilirubin-albumin binding isotherm in minimally diluted newborn plasma titrated with bilirubin", "parameters": "Plasma from a partial exchange transfusion performed in a term newborn with polycythemia; from tissue; host or cells: plasma of a term newborn (partial exchange transfusion)", "conditions": "dilution 1:1.8, two-site model, non-linear regression", "description": "Plasma from a partial exchange transfusion performed in a term newborn with polycythemia was titrated with bilirubin and the unconjugated unbound bilirubin determined by the present method to assess the bilirubin-albuminbinding isotherm in minimally diluted plasma. Non-linear regression used to determine the equilibrium binding constants, and a two-site model with interaction between sites best fit the binding isotherm."}, "albumin [3]": {"target": "T1, albumin", "experiment": "Oxidation of bilirubin-14C/defatted albumin by peroxidase and peroxide, Sephadex G25 column radioactivity", "assay_type": "biochemical", "conditions": "for Bilirubin: 50 μg/mL peroxidase, 1000 μmol/L ethyl hydrogen peroxide; for Eluate counts/min: albumin fraction from Sephadex G25; for Bilirubin (% time 0): 278 µM", "experimental": "A bilirubin-^14 C/defatted albumin solution (molar ratio 0.42) containing 278 μmol/L bilirubin and 60,839 counts per minute, 50 μg/mL peroxidase, and 1000 μmol/L ethyl hydrogen peroxide were allowed to react for 8 minutes. At various times (0 to 8 minutes), 100 μl of reaction mix was removed and added to 10 μl of 100 mmol/L Na2 S to stop the reaction. The bilirubin concentration was calculated from the absorption at 460 nm after dilution to 1.0 ml with 0.055M Somensen's buffer, and the entire diluted reaction mixture was then placed on a Sephadex G25 0.5×5 cm (diameter×length) column prepared according to the manufacturer's instructions. The albumin fraction was then eluted with buffer. The bilirubin remaining and the radioactivity of the eluate were measured at each time interval to determine whether the oxidation products remained bound to albumin during the reaction and therefore passed through the Sephadex column with the albumin."}, "albumin [4]": {"target": "T1, albumin", "experiment": "Unbound bilirubin in bilirubin-defatted albumin solution with sulfisoxazole, peroxidase method of the instant invention at 1:1.8 dilution", "assay_type": "binding", "conditions": "15 mg/dL sulfisoxazole; bilirubin 20 mg/dL, defatted albumin 3.0 g/dL; dilution 1:1.8; mean and SD of 3 replicates", "description": "(§1) A 0.1 cm path cuvette was employed to allow direct spectral analysis of the unbound bilirubin at the 1:1.8 dilution."}, "albumin [5]": {"target": "T1, albumin", "experiment": "Unbound bilirubin in bilirubin-defatted albumin solution with sulfisoxazole, Jacobsen and Wennberg method at 1:41.8 dilution", "assay_type": "binding", "conditions": "15 mg/dL sulfisoxazole; bilirubin 20 mg/dL, defatted albumin 3.0 g/dL; dilution 1:41.8; mean and SD of 3 replicates", "experimental": "as §1\nThe Jacobsen and Wennberg method was performed as above using a 1 cm path cuvette. The […] technique was performed by stopping the reaction after five minutes with 1.0 ml of diazo-A and then adding 1.0 ml of 90% methanol."}, "newborns": {"system": "newborns", "conditions": "displaces bilirubin from albumin, blood level 15 mg/dL reported; cited from earlier work"}, "horseradish peroxidase": {"system": "horseradish peroxidase", "experiment": "Standardization of catalyzing reagent: peroxidase catalyzed oxidation of bilirubin by peroxide in the absence of albumin", "assay_type": "biochemical", "conditions": "about 21° C.", "experimental": "This is done by determining the Kp, i.e., the first order rate constant for the oxidation of bilirubin by the oxidizing reagent (usually peroxide) in the presence of the catalyzing reagent. The Kp is determined by standard techniques known in the art, utilizing known concentrations of unbound unconjugated bilirubin. […] If B is the unconjugated unoxidized bilirubin concentration at time t, P is the concentration of the catalyzing reagent e.g., peroxidase, Bo, and Bt are the initial unconjugated bilirubin concentration and the unconjugated bilirubin concentration at time t, respectively, and the concentration of the oxidizing reagent e.g., peroxide is not rate limiting, then at concentrations of bilirubin that are well below the Km for peroxidase catalyzed peroxide oxidation of bilirubin, (for HRP, this value is .congruent.70 uMol at 37° C.), then\ndB/dt=-Kp ·P·B EQ.3\nIntegrating Equation 3 between the limits t=o and t=t, wherein t is the predetermined time referred to hereinabove provides [formula] Thus, in accordance with EQ.4, the value of Kp is determined if a known concentration of peroxidase is reacted with an excess amount of peroxide with a known amount of unbound unconjugated bilirubin."}},
  "note": "Where “and” joins values, the source holds several entries; their conditions need not be identical. Equal entries are not always repeated. Where two headings read alike, the source gives them in different places.",
  "data": [
    {"molecule": "C=CC1=C(C)/C(=C/c2[nH]c(Cc3[nH]c(/C=C4\\NC(=O)C(C)=C4C=C)c(C)c3CCC(=O)O)c(CCC(=O)O)c2C)NC1=O", "note": "[bilirubin, bilirubin IXa]", "values": [
      {"measurement": "First order dissociation rate constant k-1 of the bilirubin-albumin complex, lowest value", "setting": "albumin [1]", "value": "about 0.4 /min"},
      {"measurement": "Kd", "setting": "albumin [2]; read-out: Equilibrium dissociation constant, 1:1 bilirubin/albumin species", "value": 59, "unit": "nM"},
      {"measurement": "Kd", "setting": "albumin [2]; read-out: Equilibrium dissociation constant, 2:1 bilirubin/albumin species", "value": 30.3, "unit": "nM"},
      {"measurement": "Eluate counts/min (% time 0)", "setting": "albumin [3]; reaction time 0 min", "value": 100, "unit": "% time 0"},
      {"measurement": "Bilirubin", "setting": "albumin [3]; reaction time 0 min", "value": "4.86 µmol/L and 4.93 µmol/L"},
      {"measurement": "Eluate counts/min", "setting": "albumin [3]; reaction time 0 min", "value": "57,675 counts/min and 57,692 counts/min"},
      {"measurement": "Eluate counts/min (% time 0)", "setting": "albumin [3]; reaction time 4 min", "value": "97 % time 0 and 92 % time 0"},
      {"measurement": "Bilirubin", "setting": "albumin [3]; reaction time 4 min", "value": "3.07 µmol/L and 3.36 µmol/L"},
      {"measurement": "Bilirubin (% time 0)", "setting": "albumin [3]; reaction time 4 min, 4 min", "value": "63 % time 0 and 68 % time 0"},
      {"measurement": "Eluate counts/min", "setting": "albumin [3]; reaction time 4 min", "value": "55,797 counts/min and 53,070 counts/min"},
      {"measurement": "Eluate counts/min (% time 0)", "setting": "albumin [3]; reaction time 6 min", "value": "87 % time 0 and 82 % time 0"},
      {"measurement": "Bilirubin", "setting": "albumin [3]; reaction time 6 min", "value": "2.70 µmol/L and 2.60 µmol/L"},
      {"measurement": "Bilirubin (% time 0)", "setting": "albumin [3]; reaction time 6 min, 6 min", "value": "55 % time 0 and 53 % time 0"},
      {"measurement": "Eluate counts/min", "setting": "albumin [3]; reaction time 6 min", "value": "50,119 counts/min and 47,500 counts/min"},
      {"measurement": "Eluate counts/min (% time 0)", "setting": "albumin [3]; reaction time 8 min", "value": "87 % time 0 and 86 % time 0"},
      {"measurement": "Bilirubin", "setting": "albumin [3]; reaction time 8 min", "value": "2.14 µmol/L and 2.24 µmol/L"},
      {"measurement": "Eluate counts/min", "setting": "albumin [3]; reaction time 8 min", "value": "50,174 counts/min and 49,405 counts/min"}
    ]},
    {"molecule": "Cc1noc(NS(=O)(=O)c2ccc(N)cc2)c1C", "note": "[sulfisoxazole]", "values": [
      {"measurement": "CONCENTRATION OF UNBOUND BILIRUBIN + Sulfa", "setting": "albumin [4]", "value": "0.285 ± 0.03", "unit": "μm"},
      {"measurement": "CONCENTRATION OF UNBOUND BILIRUBIN + Sulfa", "setting": "albumin [5]", "value": "0.092 ± .003 μm"},
      {"measurement": "Bilirubin toxicity when given to newborns", "setting": "newborns", "value": "development of bilirubin toxicity"}
    ]},
    {"molecule": "horseradish peroxidase", "values": [
      {"measurement": "Kp, first order rate constant for catalyzed oxidation of bilirubin", "setting": "horseradish peroxidase", "value": "about eight"}
    ]}
  ]
}
